# Laboratory results published in US20210030843A1, “COMPOSITION AND METHOD FOR REDUCING CHEMOTHERAPY-INDUCED NEUTROPENIA VIA THE ADMINISTRATION OF PLINABULIN AND A G-CSF AGENT” (BEYONDSPRING PHARMACEUTICALS, INC., priority 2018, published 2021).
# Values joined by “and” are separate entries in the source; they are usually repeats but may differ in a detail not shown here. Equal entries are not always repeated. Where two headings read alike, the source gives them in different places.
# B1: G-CSF: Granulocyte-colony stimulating factor: compounds or factors that stimulate proliferation, differentiation, commitment and end cell functional activation of granulocytes (protein, UniProt P09919 31-207, looked up)
# Granulocyte …: TPLGPASSLPQSFLLKCLEQVRKIQGDGAALQEKLVSECATYKLCHPEELVLLGHSLGIPWAPLSSCPSQALQLAGCLSQLHSGLFLYQGLLQALEGISPELGPTLDTLQLDVADFATTIWQQMEELGMAPALQPTQGAMPAFASAFQRRAGGVLVASHLQSFLEVSYRVLRHLAQP
# B2: pegfilgrastim: colony-stimulating factor that acts on hematopoietic cells by binding to specific cell surface receptors (protein, chains of the INN, looked up)
# chain: TPLGPASSLPQSFLLKCLEQVRKIQGDGAALQEKLCATYKLCHPEELVLLGHSLGIPWAPLSSCPSQALQLAGCLSQLHSGLFLYQGLLQALEGISPELGPTLDTLQLDVADFATTIWQQMEELGMAPALQPTQGAMPAFASAFQRRAGGVLVASHLQSFLEVSYRVLRHLAQP
# modifications: PEG
# How the values were obtained:
# [1] = tested on: patients with solid tumors receiving docetaxel myelosuppressive chemotherapy; assay: Example 1: randomized, double blind study, plinabulin versus pegfilgrastim with docetaxel; format: in vivo, human; conditions: for change of neutrophil count through time (FIG. 1): after docetaxel 75 mg/m^2, pegfilgrastim 6 mg, plinabulin 5, 10, 20 mg/m^2
# Method: A randomized, double blind study to evaluate duration of severe neutropenia with plinabulin versus pegfilgrastim in patients with solid tumors receiving docetaxel myelosuppressive chemotherapy was performed. Patients were randomly assigned to the following arms (with the respective sample sizes): Arm 1: Docetaxel (75 mg/m^2)+Pegfilgrastim (6 mg) (n=14); Arm 2: Docetaxel (75 mg/m^2)+Plinabulin (20 mg/m^2) (n=14); Arm 3: Docetaxel (75 mg/m^2)+Plinabulin (10 mg/m^2) (n=14); and Arm 4: Docetaxel (75 mg/m^2)+Plinabulin (5 mg/m^2) (n=13).
# [2] = tested on: neutropenia caused by chemotherapies; assay: Animal model studies of chemotherapy-caused neutropenia; format: in vivo; conditions: docetaxel, cisplatin, adriamycin, cyclosphosphamide, topotecan, gemcitabine
# [3] = tested on: NSCLC patients (pts) with a measurable lesion; assay: Phase 2 trial, addition of Plinabulin to Docetaxel in NSCLC patients; conditions: human, in vivo
# [4] = tested on: Patients with solid tumors; assay: Plinabulin monotherapy in patients with solid tumors, laboratory parameters; format: in vivo, human; conditions: in the absence of chemotherapy
# patients [5] = conditions: Plinabulin
# [6] = tested on: patients (docetaxel-induced neutropenia); conditions: for proportion of patients with Grade 4 neutropenia: Cycle 1, docetaxel treatment alone vs addition of plinabulin to docetaxel, ANC <0.5×10^9/L, p<0.0003
# patients [7] = conditions: G-CSF, cited from earlier work
# [8] = tested on: Patients with first line breast cancer receiving TAC; assay: Example 2: Phase 2 open label study, plinabulin and pegfilgrastim after TAC; format: in vivo, human; conditions: pegfilgrastim 6 mg
# Method: A multicenter, randomized study, involving G-CSF and plinabulin was performed. The Phase 2 portion was randomized and open label. The decision to complete the Phase 2 portion of the study as open label was made to reduce the complexities of study conduct and to allow for the assessment, via QoL, of same-day plinabulin dosing (i.e on the day of chemotherapy dosing) versus next day dosing with G-CSF. Patients with first line breast cancer were enrolled in the study.
# Patients received up to 4 cycles of a docetaxel/doxorubicin/cyclophosphamide based chemotherapy regimen, every 3 weeks (21 days). On Day 1 of Cycle 1, all patients receive docetaxel (75 mg/m^2), doxorubicin (50 mg/m^2), and cyclophosphamide (500 mg/m^2)-Taxotere, Adriamycin and cyclophosphamide (TAC).
# During Cycles 2 to 4, the doxorubicin component may be omitted at the discretion of the investigator, i.e., TC can be administered instead of TAC.
# The eligibility of all patients was determined during a 28-day screening period.
# Phase 2 (Open Label): In Phase 2, patients were randomly assigned to one of the treatment arms, with the arm designation and planned intervention as shown in Table 2.
# Patients have been randomized to receive TAC (or TC for Cycles 2 to 4)+pegfilgrastim or a combination of plinabulin and pegfilgrastim in each of Arms 1, 2, 3, and 4.
# In Phase 2 (Open Label), Cycles 1 to 4 consisted of TAC (or TC for Cycles 2 to 4) administered IV on Day 1, every 21 days. Patients in Arms 2 and 3 received a single dose of plinabulin over 30 minutes (±5 minutes), 30 minutes after the end of the TAC (or TC for Cycles 2 to 4) infusion on Day 1. On Day 2 of each cycle (≥24 hours after completing chemotherapy) patients in […] received a single dose of pegfilgrastim (6.0 mg) (subcutaneous injection) in an open label treatment.
# Docetaxel: Docetaxel was administered at a dose of 75 mg/m2. Administration was carried out with a 1-hour IV infusion per institutional protocol at the dose prescribed by this clinical study protocol (75 mg/m2). Dexamethasone (16 mg per day administered as 8 mg twice daily, or as per institution standard) was given on the day before, the day of (Day 1), and the day following docetaxel infusion (Day 2).
# Doxorubicin: Doxorubicin was administered at a dose of 50 mg/m2. Doxorubicin is potentially cardiotoxic. Risk for doxorubicin cardiotoxicity increases with the cumulative lifetime dose of doxorubicin. At the doxorubicin dose and schedule in this study, patients received a cumulative doxorubicin dose of […] of body surface area, below the threshold for symptomatic cardiac dysfunction. Patients were monitored, per institutional standard, for doxorubicin cardiotoxicity.
# Cyclophosphamide: Cyclophosphamide was administered at a dose of 500 mg/m^2.
# TAC Regimen: All patients received 3 week cycles of TAC chemotherapy. In each cycle, doxorubicin (50 mg/m2) given as a 15-minute IV infusion was administered first, followed immediately by cyclophosphamide (500 mg/m2) given as a 30-minute IV infusion, and then by docetaxel (75 mg/m2) administered as 1-hour IV infusion (the infusion times stated are approximate).
# patients [9] = conditions: most common adverse reactions; cited from earlier work
# [10] = Table 4, alone or with plinabulin 20 mg/m^2
# [11] = cycle 1 after TAC, breast cancer, alone or with plinabulin 20 mg/m^2
molecule,measurement,setting,value
"CC(C)(C)c1[nH]cnc1/C=c1\[nH]c(=O)/c(=C/c2ccccc2)[nH]c1=O [Plinabulin, (3Z,6Z)-3-Benzylidene-6-{[5-(2-methyl-2-propanyl)-1H-imidazol-4-yl]methylene}-2,5-piperazinedione]",change of neutrophil count through time (FIG. 1),[1],started to rise again on day 10
same,treating neutropenia induced by chemotherapeutic agent,[1]; docetaxel 75 mg/m^2,effective
same,overshot of the ANC during recovery,[1]; in vivo,prevented
same,prevention of neutropenia caused by chemotherapies,[2],prevent neutropenia
same,Immune-Related AEs (IR-AEs),[3],without increasing
same,changes in hematology or chemistry laboratory parameters,[4],did not experience any clinically significant deleterious changes
same,Bone Pain (% of patients),patients [5],<4%
same,Hospitalization (% of patients),patients [5],6%
same,"Grade 3 transient hypertension, patients",[6]; 20 mg/m^2 plinabulin,5%
same,"Grade 3 transient hypertension, patients",[6]; 30 mg/m^2 plinabulin,20%
same,proportion of patients with Grade 4 neutropenia,[6],4.6%
same,"clinical sequelae associated with docetaxel-induced neutropenia (sepsis, infections, hospitalizations, docetaxel dose reductions, G-CSF use)","[6]; human, in vivo",reduced
same,"bone pain, patients",[6]; patients receiving plinabulin,4%
"CC(=O)O[C@@]12CO[C@@H]1C[C@H](O)[C@@]1(C)C(=O)[C@H](O)C3=C(C)[C@@H](OC(=O)[C@H](O)[C@@H](NC(=O)OC(C)(C)C)c4ccccc4)C[C@@](O)([C@@H](OC(=O)c4ccccc4)[C@H]21)C3(C)C [docetaxel, reference compound]",proportion of patients with Grade 4 neutropenia,[6],33.3%
B1,Hospitalization (% of patients),patients [7],20%
same,Bone Pain (% of patients),patients [7]; footnote mark 1,>20%^1
B2,change of neutrophil count through time (FIG. 1),[1],began to drop after 10 days
same,Anti-cancer,[8]; [10],No
same,DSN (grade 3/4),[8]; [10],Well over 1 day
same,% neutropenia (grade 4),[8]; [11],57% and > 50%
same,DSN (grade 3/4),[8]; [11],1.4 ± 1.0
same,patients with NLR greater than 5 (FIG. 6),[8]; [11],76%
same,ANC nadir of median ANC (FIG. 2),"[8]; first 10 days of cycle 1, alone or with plinabulin 20 mg/m2",within the grade 3/4 neutropenia range
same,Median ANC Nadir,[8]; alone or with plinabulin 20 mg/m^2,0.47 10^9 cells/L
same,"bone pain, patients",patients [9],31%
same,"pain in an extremity, patients",patients [9],9%
